Source: patent US6423887B1, “Glyphosate tolerant fescue grass variety” (Pure Seed Testing, Inc., priority 2001, dated 2002)

Legend:
Type in all cases: in vivo, Festuca arundinacea
[1] = system: cloned survivors from Coronado, Apache II and Tomahawk; assay: Glyphosate screening of vegetative clones in cell pack planting flats; settings: 1 quart per acre glyphosate with WA-100, clones in cell pack planting flats, sprayed 1 month after cloning
Pure Gold tall fescue = assay: Glyphosate tolerance field trial, turf seeded fall 1998 near Hubbard, Oreg.; settings: for Herbicide damage: scale 1-9, 9=no glyphosate damage; for Summer Stress: scale 1-9; for Turf quality (no herbicide): scale 1-9, 9=ideal quality
Description: (§1) The following tables show examples of field trials in which the glyphosate resistance characteristics of the Tomahawk RT variety were examined and compared to currently used tall fescue grass varieties. Grasses were seeded in the fall of 1998 near Hubbard, Oreg. and rated between November 1998 and September 1999.
(§2) 2, 1999. The score ratings are based on a scale of 1 to 9. For herbicide damage: 9 =no glyphosate damage; 8-7=10-20% yellowing; 6-5=30-40% yellowing with minor growth retardation; 4-3=50-60% yellowing with growth retardation; 2-1=70-90% yellowing with dead turf. For turf quality: 9=best turf quality, 0=dead turf.
(§3) Grasses were sprayed with 1 pint per acre glyphosate on Nov. 19, 1998 and ½ pint (8 oz.) per acre on Mar. 2, 1999. The effect of the herbicide application on turf quality and on glyphosate damage is shown, using a scale of 1 to 9 as described for Table 3 (9: ideal quality; no disease; no glyphosate damage). In addition, the percent of damage due to herbicide application (which indicates yellowing, stunting, and death) is shown.

5HU tall fescue = assay: as above; settings: for Herbicide damage: scale 1-9, 9=no glyphosate damage; for Summer Stress: scale 1-9; for Turf quality (no herbicide): scale 1-9, 9=ideal quality
Description: as §1, §2, §3

Tar Heel tall fescue = assay: as above; settings: for Herbicide damage: scale 1-9, 9=no glyphosate damage; for Summer Stress: scale 1-9; for Turf quality (no herbicide): scale 1-9, 9=ideal quality
Description: as §1, §2, §3

Tomahawk RT tall fescue = assay: as above; settings: for Herbicide damage: scale 1-9, 9=no glyphosate damage; for Summer Stress: scale 1-9; for Turf quality (no herbicide): scale 1-9, 9=ideal quality
Description: as §1, §2, §3

Kentucky 31 tall fescue = assay: as above; settings: for Herbicide damage: scale 1-9, 9=no glyphosate damage; for Summer Stress: scale 1-9; for Turf quality (no herbicide): scale 1-9, 9=ideal quality
Description: as §1, §2, §3

Tomahawk E tall fescue = assay: as above; settings: for Herbicide damage: scale 1-9, 9=no glyphosate damage; for Summer Stress: scale 1-9; for Turf quality (no herbicide): scale 1-9, 9=ideal quality
Description: as §1, §2, §3

Wolfpack tall fescue = assay: as above; settings: for Herbicide damage: scale 1-9, 9=no glyphosate damage; for Summer Stress: scale 1-9; for Turf quality (no herbicide): scale 1-9, 9=ideal quality
Description: as §1, §2, §3

[2] = system: seedlings, progenies of the 23 5RU clones; assay: Greenhouse glyphosate screening of seedlings; settings: one quart per acre, sprayed at the three to four leaf stage, 74 out of 150
[3] = 1/2 pint (8 oz.) per acre sprayed Mar. 2, 1999, rated 1 April
[4] = 1/2 pint (8 oz.) per acre sprayed Mar. 2, 1999, rated 20 April
[5] = 1/2 pint (8 oz.) per acre sprayed Mar. 2, 1999, rated 24 Sept
[6] = 1 pint per acre Nov. 19, 1998 and 1/2 pint per acre Mar. 2, 1999, rated 1 Apr
[7] = 1 pint per acre Nov. 19, 1998 and 1/2 pint per acre Mar. 2, 1999, rated 1 May
[8] = 1 pint per acre Nov. 19, 1998 and 1/2 pint per acre Mar. 2, 1999, rated 20 Apr
[9] = 1 pint per acre Nov. 19, 1998 and 1/2 pint per acre Mar. 2, 1999, rated 24 Sept
[10] = 1 pint per acre sprayed Nov. 19, 1998, rated 2 Mar
[11] = 1 pint per acre sprayed Nov. 19, 1998, rated 26 Dec, % damage (yellowing, stunting, death)
[12] = 1 pint per acre sprayed Nov. 19, 1998, rated 26 Jan
[13] = 1/2 pint per acre of glyphosate herbicide (41% w/v glyphosate), field, January through September 1999
[14] = 1 pint per acre of agricultural formulation (about 0.056 g per square meter glyphosate)

SMILES: O=C(O)CNCP(=O)(O)O [Glyphosate, N-(phosphonomethyl) glycine]
- survivors [1]: 5%
- Herbicide damage (Pure Gold tall fescue; [3]): 5.3
- Herbicide damage (Pure Gold tall fescue; [4]): 5.5
- Summer Stress (Pure Gold tall fescue; [5]): 5.3
- Herbicide damage % (Pure Gold tall fescue; [6]): 41.3%
- Turf quality (no herbicide) (Pure Gold tall fescue; [6]): 3.8
- Turf quality (no herbicide) (Pure Gold tall fescue; [7]): 4.8
- Turf quality (no herbicide) (Pure Gold tall fescue; [8]): 3.8
- Summer Stress (Pure Gold tall fescue; [9]): 7.3
- Herbicide damage (Pure Gold tall fescue; [10]): 3.3
- Herbicide damage % (Pure Gold tall fescue; [11]): 33.8%
- Turf quality (no herbicide) (Pure Gold tall fescue; [12]): 3.5
- Herbicide damage (Pure Gold tall fescue; [12]): 4.0
- Herbicide damage (5HU tall fescue; [3]): 5.3
- Herbicide damage (5HU tall fescue; [4]): 4.5
- Summer Stress (5HU tall fescue; [5]): 6.3
- Herbicide damage % (5HU tall fescue; [6]): 33.8%
- Turf quality (no herbicide) (5HU tall fescue; [6]): 2.8
- Turf quality (no herbicide) (5HU tall fescue; [7]): 4.8
- Turf quality (no herbicide) (5HU tall fescue; [8]): 3.8
- Summer Stress (5HU tall fescue; [9]): 7.0
- Herbicide damage (5HU tall fescue; [10]): 3.5
- Herbicide damage % (5HU tall fescue; [11]): 45.0%
- Turf quality (no herbicide) (5HU tall fescue; [12]): 3.3
- Herbicide damage (5HU tall fescue; [12]): 3.8
- Herbicide damage (Tar Heel tall fescue; [3]): 5.0
- Herbicide damage (Tar Heel tall fescue; [4]): 5.0
- Summer Stress (Tar Heel tall fescue; [5]): 7.0
- Herbicide damage % (Tar Heel tall fescue; [6]): 40.0%
- Turf quality (no herbicide) (Tar Heel tall fescue; [6]): 3.0
- Turf quality (no herbicide) (Tar Heel tall fescue; [7]): 5.0
- Turf quality (no herbicide) (Tar Heel tall fescue; [8]): 4.0
- Summer Stress (Tar Heel tall fescue; [9]): 7.5
- Herbicide damage (Tar Heel tall fescue; [10]): 3.3
- Herbicide damage % (Tar Heel tall fescue; [11]): 76.3%
- Turf quality (no herbicide) (Tar Heel tall fescue; [12]): 2.0
- Herbicide damage (Tar Heel tall fescue; [12]): 2.3
- Herbicide damage (Tomahawk RT tall fescue; [3]): 7.5
- Herbicide damage (Tomahawk RT tall fescue; [4]): 7.3
- Summer Stress (Tomahawk RT tall fescue; [5]): 6.5
- reduction in growth rate (Tomahawk RT tall fescue; [13]): no substantial reduction in growth rate
- yellowing of the grass (Tomahawk RT tall fescue; [13]): only minor amounts of yellowing
- Herbicide damage % (Tomahawk RT tall fescue; [6]): 72.5%
- Turf quality (no herbicide) (Tomahawk RT tall fescue; [6]): 6.3
- Turf quality (no herbicide) (Tomahawk RT tall fescue; [7]): 6.5
- Turf quality (no herbicide) (Tomahawk RT tall fescue; [8]): 6.0
- Summer Stress (Tomahawk RT tall fescue; [9]): 7.8
- recovery of grass plants not killed (Tomahawk RT tall fescue; [14]): complete recovery
- yellowing and retardation of plant growth (Tomahawk RT tall fescue; [14]): more yellowing of the grasses and a substantial retardation of plant growth
- Herbicide damage (Tomahawk RT tall fescue; [10]): 5.3
- Herbicide damage % (Tomahawk RT tall fescue; [11]): 21.3%
- Turf quality (no herbicide) (Tomahawk RT tall fescue; [12]): 4.3
- Herbicide damage (Tomahawk RT tall fescue; [12]): 5.3
- sensitivity to glyphosate herbicide applications (Tomahawk RT tall fescue; ambient temperature of the plants below about 32° C.): more sensitive
- sensitivity to glyphosate (Tomahawk RT tall fescue; applied during the seedling stage, within the first 60-days of planting): more sensitive
- tolerated application of agricultural formulations of glyphosate herbicide (Tomahawk RT tall fescue; depending on time of year, age of the plants and environmental conditions): up to 1 pint per acre
- Herbicide damage (Kentucky 31 tall fescue; [3]): 3.3
- Herbicide damage (Kentucky 31 tall fescue; [4]): 3.8
- Summer Stress (Kentucky 31 tall fescue; [5]): 4.5
- Herbicide damage % (Kentucky 31 tall fescue; [6]): 33.8%
- Turf quality (no herbicide) (Kentucky 31 tall fescue; [6]): 2.0
- Turf quality (no herbicide) (Kentucky 31 tall fescue; [7]): 4.0
- Turf quality (no herbicide) (Kentucky 31 tall fescue; [8]): 3.3
- Summer Stress (Kentucky 31 tall fescue; [9]): 5.8
- Herbicide damage (Kentucky 31 tall fescue; [10]): 2.8
- Herbicide damage % (Kentucky 31 tall fescue; [11]): 75.0%
- Turf quality (no herbicide) (Kentucky 31 tall fescue; [12]): 2.0
- Herbicide damage (Kentucky 31 tall fescue; [12]): 2.0
- Herbicide damage (Tomahawk E tall fescue; [3]): 4.3
- Herbicide damage (Tomahawk E tall fescue; [4]): 3.8
- Summer Stress (Tomahawk E tall fescue; [5]): 6.3
- Herbicide damage % (Tomahawk E tall fescue; [6]): 36.3%
- Turf quality (no herbicide) (Tomahawk E tall fescue; [6]): 2.8
- Turf quality (no herbicide) (Tomahawk E tall fescue; [7]): 4.5
- Turf quality (no herbicide) (Tomahawk E tall fescue; [8]): 3.5
- Summer Stress (Tomahawk E tall fescue; [9]): 7.3
- Herbicide damage (Tomahawk E tall fescue; [10]): 2.3
- Herbicide damage % (Tomahawk E tall fescue; [11]): 65.0%
- Turf quality (no herbicide) (Tomahawk E tall fescue; [12]): 2.8
- Herbicide damage (Tomahawk E tall fescue; [12]): 2.5
- Herbicide damage (Wolfpack tall fescue; [3]): 4.0
- Herbicide damage (Wolfpack tall fescue; [4]): 2.8
- Summer Stress (Wolfpack tall fescue; [5]): 5.5
- Herbicide damage % (Wolfpack tall fescue; [6]): 41.3%
- Turf quality (no herbicide) (Wolfpack tall fescue; [6]): 3.3
- Turf quality (no herbicide) (Wolfpack tall fescue; [7]): 4.8
- Turf quality (no herbicide) (Wolfpack tall fescue; [8]): 4.5
- Summer Stress (Wolfpack tall fescue; [9]): 7.8
- Herbicide damage (Wolfpack tall fescue; [10]): 3.3
- Herbicide damage % (Wolfpack tall fescue; [11]): 52.5%
- Turf quality (no herbicide) (Wolfpack tall fescue; [12]): 3.5
- Herbicide damage (Wolfpack tall fescue; [12]): 3.3
- seedlings survived [2]: 50%
